Reference: US6815461B1, “Method of inhibiting retroviral integrase” (The University of North Carolina at Chapel Hill, priority 1994, dated 2004)
Where two headings read alike, the source gives them in different places.

Assays:
[1] = Toxicity assay (XTT) on the cell lines used to measure virus infectivity; format: cell-based; conditions: human
Procedure: (§1) Three different toxicity tests were performed on the cell lines used to measure virus infectivity.
(§2) The initial test for toxicity utilized the XTT Assay as described by Weislow et al, J. Natl. Cancer Inst. 81, 577-586 (1989). This is the standard assay used originally to measure cell toxicity by potential reverse transcriptase inhibitors. Briefly, cells were grown to cells/ml and drug dilutions were added to the medium. After two days incubation, XTT reagent is added and incubation is continued for 4 h at 37° C. Following incubation, the plates are read at 450 minus 650 nm (the 650 value is the backround value which is automatically subtracted) with controls of media+XTT reagent without cells, and cells+media without reagent. Also a control of cells+media+XTT reagent was run for each plate. Medium without phenol red was employed to minimize background color as the XTT reagent goes from colorless (unreduced) to orange (reduced). The XTT reagent was freshly prepared on the day of assay as follows: 1 mg/ml of XTT in […] phenazine methosulfate. The phenazine methosulfate solution was prepared ahead of time and stored at 4° C. in a dark bottle. The XTT reagent is added to the microtiter wells at 24 ul per 100 ul of medium. The O.D. was measured on a Vmax plate reader from Molecular Devices Co. with data reduction. Results are expressed as percent of untreated controls. The least toxic compounds were Compounds A, B, and F with toxicities values at 500 μM or greater.
(§3) The third test for cell toxicity assessed growth rate in the presence of the test compound versus a control culture. Magic cells were grown over a period of 15 days with or without various dilutions of test compound. Aliquots were removed every other day and the cells were counted in a hemocytometer. The results are set forth in FIG. 2 herein (see also Table 2 below).

Magic cells [2] = assay: as above; format: cell-based; conditions: human, 2 days
Procedure: as §1, §2, §3

HIV-1 [3] = assay: Magic cell HIV-1 inhibition assay; format: cell-based, HIV-1 strain HXB2; conditions: Human immunodeficiency virus 1; Magic cells, infectious units with or without drug, 4 h pretreatment, read two days later
Procedure: Cell lines used were CEM cells, a human T-cell lymphona cell line, A. Kaplan et al, J. Virol. 67, 4050-5 (1993), and Magic cells, J. Kimpton et al, J. Virol. 66, 2232-2239 (1992). The CEM cells were grown in RPM1-1640 medium supplemented with 5% FCS. The Magic Cells, a HELA derivative, were grown in DMEM/H supplemented with 5% FCS, G418 ([…]) and Hygromycin ([…]). The HIV isolate was strain HXB2, originally from Lee Ratner in the laboratory of Robert Gallo at the National Institutes of Health.
The magic cell assay described by Kimpton et al., supra, was used as described. This assay identifies individual cells infected with HIV-1 by the expression of tat, which transactivates an endogenous copy of the HIV-1 LTR linked to the lac2 reporter gene after integration, inducing β-galactosidase expression when x-gal is added to the cell medium. Any cell with integrated HIV-1 will turn blue. Thus, this assay provides a convenient way to determine the effect of HIV inhibitors at any early step up through the expression of tat, including the inhibition of integration.
The magic cells are plated in twelve-well plates one day prior to infection. The standard assay involves infection with approximately 200 infectious units of HIV-1. This gives an approximately 20 to 1 ratio of signal to background and sufficient numbers of infectious events to quantitate dim effects. The cells are pretreated with drug for 4 hours prior to virus infection, and virus adsorption takes place for 1 hour. The cells are washed with plain medium, and then medium with inhibitor is placed back on the cells. Two days later the cells are fixed after integration with x-gal, the indicator reagent for β-galactosidase production. The number of β-galactosidase expressing cells are quantitated by light microscopy.
The results of comparisons of infectious units with or without various concentrations of the bis-benzimididazoles drugs in the magic cell assay are expressed as IC50 values and are compiled in Table 2 above. Note that the best anti-HIV compounds (B-D) were also the best integrase inhibitors, except for compound A, which could not be accurately measured due to its substrate aggregating properties.

HIV-1 integrase = molecular target: T1, HIV-1 integrase (Human immunodeficiency virus type 1 group M subtype B, UniProt P04585); assay: Integrase inhibition assay (cleavage and strand transfer of 32P-labelled HIV-1 U5/U3 oligonucleotide substrate); format: biochemical
T1 construct: using the integrase coding domain from the HXB2 clone of HIV-1 DNA; made in house; host or cells: E. coli
Procedure: Integrase was overproduced in E. coli from an inducible plasmid containing the integrase sequence under control of a lacI-regulated T7 polymerase using the integrase coding domain from the HXB2 clone of HIV-1 DNA (L. Ratner et al, AIDS Res. Hum. Retroviruses 3, 57-69 (1987)), pT7fll-IN. A one liter culture at an O.D. of 0.6 was induced by the addition of IPTG to 0.5 mM. After three hours, the cells were harvested by centrifugation and the pellets were stored at −70° C.
The integrase protein was purified by a modification of the method of Sherman and Fyfe (P. Sherman et al, Proc. Natl. Acad. Sci. USA 87, 5119-23 (1990)). The cells were lysed by thawing in a buffer (50 mM Tris-HCl pH 7.5, 5 mM dithiothreitol, 1 mM EDTA, 1 mg/ml lysozyme) on ice at 6 ml/g bacterial pellet for 30 minutes, and then incubating at 37° C. for 5 minutes. The lysate was centrifuged at 12,000×g for one hour. The pellets were resuspended in 50 mM Tris-HCl, pH 7.5, 1 mM dithiothreitol, 1 mM EDTA, 1 M NaCl (4 ml/g original bacteria). The homogenate was stirred for 30 minutes at 4° C. and recentrifuged for 30 minutes at 12,000×g.
The supernatant was made 0.8 M in ammonium sulfate by the slow addition of powder with stirring over a 30 minute period. The extract was then centrifuged to remove any precipitate and applied to a phenyl sepharose column. After a 50 ml wash with high salt buffer (50 mM Tris-HCl, 1 mM EDTA, 5 mM DTT, 2 M NaCl), the protein was eluted with a gradient from high salt to O salt buffer containing 10% (weight/vol) glycerol and further purified through a G75 Sephadex column to remove background nuclease. A one liter culture generates enough integrase activity to perform over a thousand drug inhibition assays.
Cleavage of specific sites is assessed as described in Sherman et al., supra, except that the assay buffer was the same as that reported by Chow et al, Science 255, 723-6 (1992). Single 20 mer oligonucleotides corresponding to either the U5 or U3 ends of HIV-1 are end-labeled with ^32P, annealed with its complement, purified, and used under the same conditions as described above for the endonuclease assay. Reaction products are denatured with formamide, electrophoresed through 20% denaturing polyacrylamide gels and visualized by autoradiography. Both cleavage and ligation activity can be assessed from one gel. To assess the ligation activity alone, “precleaved” substrate that had the −2 cleavage artificially produced by using a radiolabelled 18 mer oligonucleotide was also used for some experiments.
Integrase overproduced in E. coli was purified as described above in accordance with Sherman et al, supra, and used in drug inhibition assays. […] Dilutions of the inhibitor compounds described in Example 1 above were mixed with substrate before the addition of enzyme. The Assay was the same as described in Example 2 and used the substrate described in Example 2. Each assay was performed in duplicate. Radioactivity in bands on dried gels were quantitated with a Phosphor imager to assess drug effects on both the cleavage, nuclease, and ligation products. The IC50 values for integrase inhibition were calculated for both the cleaving and joining parts of the integrase reaction after determining the % inhibition of the control reaction for a series of drug concentrations. Compounds A, B, C, and D had similar effects on integrase activity. Compound A, however, caused aggregation of the substrate starting at relatively low concentrations (10 μM), complicating its assessment.

Magic cells [4] = assay: Plating efficiency test; format: cell-based; conditions: at the concentrations at which anti-viral effects were observed
Procedure: Next, a plating efficiency test measured the ability of the cell to grow after incubation with drug for a number of days. Magic cells were grown from an initial cell concentration of 0.8×104 with or without various concentrations of test compound for 6 days. Plating ability of the cells was assessed by plating dilutions of each culture on plastic. Colony forming units were determined after growth for two to four days by counting colonies after staining the plates. Each sample was plated in duplicate and the colony number averaged.
Another test of cellular effects by the compounds was a measure of plating efficiency of the cells after incubation with various concentrations of test agents. This will assess the actual killing of the cells by the drugs. The IC50 values are expected to be much higher in this test.

HIV-1 [5] = assay: Standard reinfection assay of antiviral activity; format: cell-based; conditions: Human immunodeficiency virus 1
Procedure: In addition, the assessment of antiviral activity as measured by the standard reinfection assay was performed for compound B. The IC50 for compound B in this assay was 10-30 μM. This confirms that the Magic cell assay is suitable for screening potential integrase inhibitors with good antiviral activity.

Magic cells [6] = assay: Growth rate in the presence of test compound; format: cell-based
Procedure: as §3
The most sensitive test employed measurements of growth rates for the cells in the presence of the test compound. Although the anti-viral assay used was one that assessed early times of the viral life cycle, this test was carried out for 15 days, with counting of cell numbers in cultures performed every other day during this time.

[7] = Integrase Cleavage IC50, % cleavage of the substrate compared to control
[8] = Integrase Strand Transfer IC50, joining part of the integrase reaction

Row | SMILES | IC50 at 2 days [1] [µM] | XTT assay toxicity value (Magic cells [2]) [µM] | IC50 (HIV-1 [3]) [µM] | IC50 (HIV-1 integrase; [7]) [µM] | IC50 (HIV-1 integrase; [8]) [µM] | Concentration at which aggregation of the substrate starts (HIV-1 integrase; integrase assay substrate) [µM] | Effect on Magic cell plating efficiency (Magic cells [4]) | IC50 (HIV-1 [5]) [µM] | Effect on growth rate of the cell line (Magic cells [6]; concentration that inhibited 50% of the viral integration events, up to two weeks) | Effect on growth rate of the cells (Magic cells [6]; higher concentrations, 15 days test) | IC50 at 2 days ([1]; Magic cells, read-out: Magic Cells Toxicity IC50) [µM]
1 | N=C(N)c1ccc2nc(C=Cc3nc4ccc(C(=N)N)cc4[nH]3)[nH]c2c1 [Compound A, 1,2-bis[5-amidino-2-benzimidazolyl]ethene] | > 500 | ≥ 500 | 48 | 11 | 11.5 | 10 | – | – | – | – | –
2 | CC(C)NC(=N)c1ccc2nc(C=Cc3nc4ccc(C(=N)NC(C)C)cc4[nH]3)[nH]c2c1 [Compound B, 1,2-bis[5-isopropylamidino-2-benzimidazolyl]ethene] | 473 | ≥ 500 | 10 to 30 | 61 | 19 | – | no effect | 10 to 30 | no effect on the growth rate | did effect the growth rate | –
3 | N=C(N)c1ccc2nc(Cc3nc4ccc(C(=N)N)cc4[nH]3)[nH]c2c1 [D, bis[5-amidino-2-benzimidazolyl]methane] | – | – | 7 | – | – | – | – | – | – | – | 175
4 | N=C(N)c1ccc2[nH]c(Cc3nc4cc(C5=NCCN5)ccc4[nH]3)nc2c1 [E, (5-Amidino-2-benzimidazolyl)-(5′-(2-imidazolinyl)-2′-benzimidazolyl)methane] | 65 | – | 16 | > 100 | 122 | – | – | – | – | – | –
